Among the test systems are COLO 205; HCC 2998; HT-29; KM-20L2; KM12; LOX IMVI; Malme-3M; NCI-H23; OVCAR-8; RXF 393; SF-268; SF-295; SF-539; SK-OV-3; TK-10; SK-MEL-2; SK-MEL-5; A498; MDA-MB-435; MDA-N.
Holding throughout (experiment): growth of human tumour cells (NCI), 48 h

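Test compounds were applied to cells in 96-well plates for 48 hours at 5 doses. GI50: concentration for 50% inhibition of growth.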 Activity calls are given as the source filed them. Rule as the data show it: active = GI50 up to about 1.1 µM and inactive = higher.

Take `O=C1CC2CC=C[C@H]3c4cc5c(cc4C(=O)N1C23)OCO5` (stereo partly specified): the GI50 in the experiment with COLO 205, with HCC 2998, with HT-29, in the experiment on KM-20L2, with KM12 and in the experiment on LOX IMVI was > 50 µM (inactive) each time. Besides, the GI50 with Malme-3M, in the experiment with NCI-H23, with OVCAR-8, with RXF 393, in the experiment with SF-268 and in the experiment with SF-295 was > 50 µM (inactive) throughout. Moreover, the GI50 in the experiment on SF-539, in the experiment on SK-OV-3 and in the experiment with TK-10 was > 50 µM (inactive) in each case.

Take `O=c1[nH]c(=O)n(C2CC(O)C(CO)O2)cc1C#Cc1ccc(C(F)(F)F)cc1` (stereo unspecified): the GI50 in the experiment with COLO 205, with HCC 2998, in the experiment with HT-29, with KM-20L2, with KM12 and in the experiment with LOX IMVI was > 100 µM (inactive) throughout. Also, the GI50 in the experiment on Malme-3M, in the experiment on NCI-H23, in the experiment with OVCAR-8, with RXF 393, in the experiment on SF-268 and in the experiment on SF-295 was > 100 µM (inactive) each time. In addition, the GI50 in the experiment with SF-539, in the experiment with SK-MEL-2, in the experiment on SK-MEL-5, in the experiment with SK-OV-3 and in the experiment with TK-10 was > 100 µM (inactive) each time.

Regarding `O=C1C(c2ccccc2)=C(c2ccccc2)C(c2ccc(-c3ccc(C4=C(c5ccccc5)C(=O)C(c5ccccc5)=C4c4ccccc4)cc3)cc2)=C1c1ccccc1`, the GI50 in the experiment on A498, in the experiment with COLO 205, in the experiment with HT-29, with KM-20L2, with KM12 and in the experiment with LOX IMVI was > 100 µM (inactive) throughout. The GI50 in the experiment on Malme-3M, in the experiment with NCI-H23, with OVCAR-8, in the experiment with RXF 393, in the experiment with SF-268 and in the experiment on SF-295 was > 100 µM (inactive) in each case. Also, the GI50 in the experiment on SF-539, in the experiment on SK-MEL-2, in the experiment on SK-MEL-5, in the experiment on SK-OV-3 and in the experiment on TK-10 was > 100 µM (inactive) in each case.

Consider `C[C@@H]1CCC([C@@H](C)[C@H]2CC[C@H]3[C@@H]4CC[C@H]5C[C@@H](O)CC[C@]5(C)[C@H]4CC[C@]23C)=NC1`, for which the GI50 in the experiment with A498 is > 70.1 µM (inactive); in the experiment with COLO 205 it was 8.15 µM (inactive); in the experiment with HCC 2998, 6.52 µM (inactive); with HT-29, 2.45 µM (inactive); in the experiment with KM12, 5.06 µM (inactive); in the experiment with LOX IMVI, 3.15 µM (inactive). Moreover, the GI50 in the experiment with MDA-MB-435 is 20.7 µM (inactive); in the experiment on MDA-N it was 9.53 µM (inactive); with Malme-3M, 18.1 µM (inactive); in the experiment on NCI-H23, 17.7 µM (inactive); in the experiment with OVCAR-8, 8.11 µM (inactive); in the experiment with RXF 393, 12.2 µM (inactive). The GI50 is 12.6 µM (inactive) in the experiment with SF-268; 4.71 µM (inactive) with SF-295; 15 µM (inactive) in the experiment with SF-539; 14.1 µM (inactive) with SK-MEL-2; 7.64 µM (inactive) in the experiment with SK-MEL-5; 30.9 µM (inactive) in the experiment with SK-OV-3. Besides, the GI50 in the experiment with TK-10 was 34.7 µM (inactive).

For `COc1ccc2c(c1)CC[C@@H]1[C@@H]2CC[C@]2(C)/C(=N/OCCN3CCCCC3)CC[C@@H]12`, the GI50 was 6.38 µM (inactive) in the experiment on A498; 1.55 µM (inactive) in the experiment with COLO 205; 2.89 µM (inactive) in the experiment on HCC 2998; 1.66 µM (inactive) in the experiment with HT-29; 3.61 µM (inactive) in the experiment with KM12; 1.66 µM (inactive) in the experiment on LOX IMVI. In addition, the GI50 in the experiment on MDA-MB-435 was 4.56 µM (inactive); in the experiment on MDA-N, 2.33 µM (inactive); in the experiment with Malme-3M, 2.25 µM (inactive); with NCI-H23 it was 11.4 µM (inactive); in the experiment on OVCAR-8 it was 9.79 µM (inactive); in the experiment on RXF 393, 2.81 µM (inactive). Further, the GI50 is 9.2 µM (inactive) in the experiment on SF-268; 3.52 µM (inactive) in the experiment on SF-295; 2.77 µM (inactive) in the experiment on SF-539; 6.07 µM (inactive) with SK-MEL-2; 2.65 µM (inactive) in the experiment with SK-MEL-5; 10.3 µM (inactive) in the experiment with SK-OV-3. For the same compound, the GI50 in the experiment on TK-10 was 4.74 µM (inactive).

With `OC/C=C/[C@H](OCc1ccccc1)[C@H](/C=C/CO)OCc1ccccc1`, the GI50 with A498 is > 100 µM (inactive); in the experiment with COLO 205 it was 59.3 µM (inactive); in the experiment with HCC 2998, 50.2 µM (inactive); in the experiment with HT-29, 24.3 µM (inactive); with KM12, 41.8 µM (inactive); in the experiment on LOX IMVI, 20.4 µM (inactive). Besides, the GI50 was 40.1 µM (inactive) in the experiment with MDA-MB-435; 36 µM (inactive) with MDA-N; > 100 µM (inactive) in the experiment on Malme-3M; 47.8 µM (inactive) in the experiment on NCI-H23; 46.2 µM (inactive) with OVCAR-8; 9.06 µM (inactive) in the experiment with RXF 393. The GI50 in the experiment with SF-268 was 40.2 µM (inactive); with SF-295 it was 32.5 µM (inactive); in the experiment with SF-539, > 100 µM (inactive); with SK-MEL-2, 37.4 µM (inactive); with SK-MEL-5, 27.9 µM (inactive); in the experiment with SK-OV-3 it was > 100 µM (inactive). The GI50 in the experiment on TK-10 was 73.1 µM (inactive).

As for `CCC1=C(c2ccc(OC)cc2)CC[C@]2(CCNC2=O)[C@@H]1C`, the GI50 in the experiment on A498 was 31.3 µM (inactive); with COLO 205, 14.4 µM (inactive); with HCC 2998 it was 28.4 µM (inactive); with HT-29 it was 23.2 µM (inactive); with KM12, 32 µM (inactive); with LOX IMVI, 25.1 µM (inactive). For the same compound, the GI50 in the experiment on MDA-MB-435 is 19.6 µM (inactive); in the experiment on MDA-N, 22.5 µM (inactive); in the experiment on Malme-3M it was 25.8 µM (inactive); in the experiment on NCI-H23, 37.4 µM (inactive); in the experiment on OVCAR-8, 42.4 µM (inactive); with RXF 393 it was 55.2 µM (inactive). Besides, the GI50 is 33.1 µM (inactive) in the experiment on SF-268; 30 µM (inactive) in the experiment with SF-295; 28.2 µM (inactive) in the experiment on SF-539; 21.3 µM (inactive) in the experiment with SK-MEL-2; 16.8 µM (inactive) in the experiment with SK-MEL-5; 45.8 µM (inactive) with SK-OV-3. Further, the GI50 in the experiment with TK-10 is 35 µM (inactive).

`O=C(/C=C(\Nc1ccccc1O)c1ccccc1)C(=O)NC12CC3CC(CC(C3)C1)C2`: the GI50 in the experiment with A498 was > 10 µM (inactive); in the experiment with COLO 205 it was > 10 µM (inactive); in the experiment on HCC 2998, > 10 µM (inactive); in the experiment with HT-29, 2.41 µM (inactive); with KM12 it was 6.95 µM (inactive); with LOX IMVI, 9.14 µM (inactive). For the same compound, the GI50 in the experiment with MDA-MB-435, in the experiment on MDA-N, in the experiment on Malme-3M, in the experiment on NCI-H23, in the experiment with OVCAR-8 and in the experiment on RXF 393 was > 10 µM (inactive) in each case. The GI50 is > 10 µM (inactive) in the experiment on SF-268; > 10 µM (inactive) in the experiment with SF-295; 8.93 µM (inactive) in the experiment on SF-539; > 10 µM (inactive) with SK-MEL-2; 7.03 µM (inactive) with SK-MEL-5; > 10 µM (inactive) with SK-OV-3. Also, the GI50 in the experiment with TK-10 is > 10 µM (inactive).

For the compound `O=C(/C=C/c1ccccc1)c1ccccc1` [CHALCONE], the GI50 was > 10 µM (inactive) in the experiment with A498; > 10 µM (inactive) in the experiment on COLO 205; > 10 µM (inactive) in the experiment on HCC 2998; 6.07 µM (inactive) in the experiment on HT-29; 3.78 µM (inactive) with KM12; 1.9 µM (inactive) with LOX IMVI. The GI50 was > 8.13 µM (inactive) with MDA-MB-435; > 10 µM (inactive) with MDA-N; > 10 µM (inactive) in the experiment on Malme-3M; > 10 µM (inactive) with NCI-H23; > 10 µM (inactive) with OVCAR-8; > 10 µM (inactive) with RXF 393. For the same compound, the GI50 with SF-268, with SF-295, with SF-539, in the experiment with SK-MEL-2, with SK-MEL-5 and with SK-OV-3 was > 10 µM (inactive) in each case. In addition, in the experiment with TK-10, the GI50 was > 10 µM (inactive).

For the compound `Cc1c(C#N)c2nnn(-c3ccc(Cl)cc3)c(=O)n2c1-c1ccccc1`, the GI50 in the experiment on A498 is 0.124 µM (active); with COLO 205, 0.0357 µM (active); in the experiment with HCC 2998, 0.0713 µM (active); with HT-29 it was 0.0553 µM (active); in the experiment with KM12, 0.051 µM (active); in the experiment on LOX IMVI it was 0.221 µM (active). The GI50 is < 0.0188 µM (active) in the experiment on MDA-MB-435; 0.0173 µM (active) with MDA-N; 0.0468 µM (active) with Malme-3M; 0.167 µM (active) in the experiment with NCI-H23; 0.163 µM (active) with OVCAR-8; 0.0764 µM (active) with RXF 393. Besides, the GI50 was 0.199 µM (active) with SF-268; 0.0531 µM (active) with SF-295; 0.0492 µM (active) in the experiment with SF-539; 0.0746 µM (active) with SK-MEL-2; 0.0605 µM (active) with SK-MEL-5; 0.145 µM (active) with SK-OV-3. Moreover, the GI50 with TK-10 was 0.476 µM (active).

For `CCN(CC)C(=S)SNCCc1ccc(S(N)(=O)=O)cc1`, the GI50 with A498 was 30.7 µM (inactive); with COLO 205, 29.2 µM (inactive); in the experiment on HCC 2998, 21.6 µM (inactive); in the experiment on HT-29 it was 10.2 µM (inactive); in the experiment with KM12, 16.6 µM (inactive); with LOX IMVI, 8 µM (inactive). Moreover, the GI50 was 14.7 µM (inactive) in the experiment on MDA-MB-435; 18.3 µM (inactive) with MDA-N; 12 µM (inactive) in the experiment with Malme-3M; 18.8 µM (inactive) in the experiment with NCI-H23; 12.6 µM (inactive) in the experiment on OVCAR-8; 7.57 µM (inactive) in the experiment with RXF 393. Besides, the GI50 in the experiment with SF-268 was 15.6 µM (inactive); with SF-295 it was 16.7 µM (inactive); with SF-539, 14.1 µM (inactive); in the experiment with SK-MEL-2, 33.6 µM (inactive); in the experiment with SK-MEL-5, 11.2 µM (inactive); in the experiment on SK-OV-3 it was 25.4 µM (inactive). Further, in the experiment with TK-10, the GI50 was 18.6 µM (inactive).
